Measured values from patent publication US12161630B2, “Methods to control infection using new generation small molecule growth inhibitors” (priority 2017, dated 2024).
Values after ≈ are worked out from the molar mass of the structure shown.

Columns and labels:
Salmonella Albany = assay: MIC and MBC dose-response, serotype Albany; type: cell-based, Salmonella enterica; conditions: MIC identical to MBC
Method: (§1) An overnight Salmonella suspension was normalized at 0.05 OD600 (approximately 3.5×10^7 CFU/ml) with an adjusted M9 minimal broth medium (12.7 mM Na2HPO4 7H2O; 22 mM KH2PO4; 18.7 mM NH4Cl; 2 mM MgSO4; 0.1 mM CaCl2; 0.4% glucose; 0.05% casamino acids). 100 μL of the suspension plus 2 μl of SMs (200 μM) were transferred into each well of a sterile, non-treated, flat bottom 96-well plate. Bacteria alone (negative control, NC), 2% DMSO plus bacteria (DMSO control), 20 μg/ml chloramphenicol or 50 μg/ml kanamycin plus bacteria (positive controls, PC), and M9 medium only were used as control. Plates were incubated in a Sunrise™ Tecan kinetic microplate reader for 12 hrs at 37° C. and the optical density (OD) was measure at 600 nm as described above. Percentage of inhibition=(OD600 SM−OD600 NC)/(OD600 NC)×100. […] Cultures from wells showing no turbidimetric increase were transferred onto a XLT4 agar plate. Plates were incubated at 37° C. for 36 hrs.
(§2) Screens were performed as described in the primary screen. The lowest SM concentration with a static effect was considered as the minimal inhibitory concentration (MIC) and the lowest SM concentration with a cidal effect was considered as the minimal bactericidal concentration (MBC).

Salmonella Anatum = assay: MIC and MBC dose-response, serotype Anatum; type: cell-based, Salmonella enterica; conditions: MIC identical to MBC
Method: as §1, §2

Salmonella Javiana = assay: MIC and MBC dose-response, serotype Javiana; type: cell-based, Salmonella enterica; conditions: MIC identical to MBC
Method: as §1, §2

[1] = test system: S. typhimurium cell membrane and nucleic acids; assay: Confocal microscopy of SM-challenged S. typhimurium (FM4-64, SYTO9); type: cell-based, Salmonella enterica subsp. Enterica serotype Typhimurium; conditions: 5×MBC of SMs for 3 hrs; compared to DMSO control
Excerpt: FIG. 13. Confocal and scanning electron microscopy (SEM) analyses of Salmonella enterica subsp. Enterica serotype Typhimurium after challenge with five times the minimal bactericidal concentration of small molecules (5×MBC of SMs) for 3 hrs. (A-O) Confocal microscopy: (A-E) S. typhimurium cell membrane stained with FM4-64; (F-J) S. typhimurium nucleic acids stained with SYTO9; (K-O) Merged pictures of the FM4-64 and SYTO9 staining. (P-S) SEM: (P) 1% dimethyl sulfoxide (DMSO) treated Salmonella; (Q) SM1 treated Salmonella; (R) SM4 treated Salmonella; (S) SM5 treated Salmonella; Bar: 1 μm.

[2] = test system: S. typhimurium cell membrane; assay: Leakage of 260 nm-absorbing material after treatment with lethal dose of SMs; type: cell-based; conditions: 1 hr, compared to 1% DMSO control
Method: To further support the observation obtained with confocal microscopy, the same samples were analyzed using scanning electron microscopy (SEM; FIG. 13P-S). […] Smaller outer membrane vesicles of approximately 20 to 70 nm were also observed covering the surface of the bacteria. […] These conclusions were further supported by measuring the crystal violet uptake and leakage of materials assessed at 260 nm after 1 hr of treatment with a lethal dose of SMs.

Kan^R S. typhimurium = assay: Salmonella clearance in one-week-old infected broiler chickens; type: in vivo; conditions: 100 μg orally twice daily for 5 days; for reduction in Salmonella population inside the ceca: compared to DMSO group; for Chicken tissues positive for Salmonella: Ceca / Chicken tissues positive for Salmonella: Livers / Chicken tissues positive for Salmonella: Spleens: n = 10
Method: FIG. 7. Experimental design of the Salmonella clearance study in one-week-old infected broiler chickens. Salmonella-free chickens were orally infected with 10^4 S. typhimurium units per chickens (0 DPI). After confirmation of the intestinal colonization by Salmonella (1 DPI), ten chicks per treatment were treated twice a day for five days with 100 μg of SMs (3 DPI to 7 DPI). Ceca, liver, and spleen tissues were collected at 8 DPI. DPI: days post-inoculation.
Effect of selected SMs on the survival of S. typhimurium in one-week-old SFP chickens: One-week-old Salmonella-free chickens were orally inoculated with approximately 10^4 Kan^R S. typhimurium bacteria. A rectal swab was collected to confirm the intestinal colonization by Salmonella at one day post-inoculation (DPI). At 3 DPI, chickens were treated orally twice a day for five days with a specific treatment of approximately 920 μg/kg SMs per dose. Details of the treatment groups are described in Table 7. Feeders were taken off one hour before the treatment and put back one hour after the treatment. Following the five days of treatment, chickens were euthanized and tissues were aseptically collected (ceca, liver, and spleen). One of the cecum was immediately stored at −80° C. after sampling for microbiota studies. Ceca, spleens, and livers tissues were suspended in 2, 3, and 5 mL of 1×PBS respectively and grinded. 1 mL of the undiluted homogenized tissue mix was enriched in 9 mL of tetrathionate broth (TTB) medium for 18 hrs at 37° C. The rest of the homogenized tissues were serial ten-fold diluted, plated on XLT4 agar plate supplemented with 50 μg/ml kanamycin, and incubated for 36 hrs at 37° C. Bacterial counts were compared with the DMSO control group.

Row | SMILES | MIC/MBC (Salmonella Albany) | MIC/MBC (Salmonella Anatum) | MIC/MBC (Salmonella Javiana) | FM4-64 cell membrane staining phenotype [1] | increase in 260 nm-absorbing material [2] | reduction in Salmonella population inside the ceca (Kan^R S. typhimurium) | Chicken tissues positive for Salmonella: Ceca (Kan^R S. typhimurium) | Chicken tissues positive for Salmonella: Livers (Kan^R S. typhimurium) | Chicken tissues positive for Salmonella: Spleens (Kan^R S. typhimurium)
1 | CCCCCCCCCCCCCCCC[n+]1ccn(CC#N)c1.[Cl-] [SM3, 1-(cyanomethyl)-3-hexadecyl-1H-imidazol-3-ium chloride] | 25 µM | 25 µM | 25 µM | No signal was detected | 7.17 fold | did not show any reduction | 80% | 60% | 50%
2 | CC1CCC(C(C)C)C(OC(=O)Cn2c[n+](CC(=O)OC3CC(C)CCC3C(C)C)c3ccccc32)C1.[Cl-] (stereo not shown) [SM1, 1,3-bis{2-[(2-isopropyl-5-methylcyclohexyl)oxy]-2-oxoethyl}-1H-3,1-benzimidazol-3-ium chloride] | 100 µM | 100 µM | 100 µM | No signal was detected | 2.18 fold | did not show any reduction | 90% | 40% | 50%
3 | CCCCCCCCCCCCCCCCn1c[n+](C)c2ccccc21.[Br-] [SM4, 1-hexadecyl-3-methyl-1H-3,1-benzimidazol-3-ium bromide] | 10 µM | 10 µM | 10 µM | No signal was detected | 15.95 fold |  | 40% | 30% | 20%
4 | CCOc1cc(/C=N/N=C(N)N)ccc1OCc1ccc(Cl)cc1 [SM5, N″-{4-[(4-chlorobenzyl)oxy]-3-ethoxybenzylidene}carbonohydrazonic diamide] | 100 µM (≈ 34.7 µg/mL) | 50 µM (≈ 17.3 µg/mL) | 50 µM (≈ 17.3 µg/mL) | stained cell membrane; however, a bright red spot was detected within every bacterium | 5.25 fold |  | 70% | 40% | 30%
